The results in this text go back to article PMC9962735, “Synthesis and Cytotoxic Activity of the Derivatives of N-(Purin-6-yl)aminopolymethylene Carboxylic Acids and Related Compounds” (Molecules, 2023).

Series [1] is described as follows: MTT cytotoxicity assay, WI-38 normal cells. It is filed as cell-based. The conditions noted are these: human, WI-38 lung fibroblasts (normal cells); for CC50 at 72 h: WI-38, 72 h incubation, MTT. The text has this:
(§1) The cytotoxicity of the test compounds was studied using the MTT assay against a number of cell lines: CT-26 murine colon carcinoma, 4T1 murine mammary carcinoma, MDA-MB-231 human breast adenocarcinoma, COLO201 human colorectal adenocarcinoma, HepG2 human hepatocellular carcinoma, A549 human non-small-cell lung carcinoma, SK-BR-3 human breast adenocarcinoma, SNU-1 human gastric carcinoma, Jurkat human acute T-lymphoblastic leukemia, and WI-38 human lung fibroblasts (normal cells). Doxorubicin (Dox) was used as a reference drug. Cells were incubated with test compounds for 72 h.
(§2) Cells were seeded in flat-bottomed 96-well plates at 10,000 cells per well (for A549, SNU-1, WI-38, CT-26, MDA-MB-231, 4T1, and HepG2 cells) or 20,000 cells per well (for SK-BR-3, Jurkat, and COLO201 cells) and cultivated in complete culture mediums (for composition of each medium, see the Supplementary Materials, Table S1) in a CO2 incubator at 37 °C. At the first stage of this study, the test compounds dissolved in DMSO were added to the wells with cells at final concentrations from 1 × 10^–4 to 1 × 10^–10 mol/L (A549, SK-BR-3, SNU-1, Jurkat, and WI-38) or 1 × 10^–3 to 1 × 10^–8 mol/L (CT-26, MDA-MB-231, 4T1, COLO201, and HepG2); DMSO concentration in the wells was finally 1%. A complete cultural medium and DMSO were added to the control wells at the same concentration as in the experimental wells; 0.1% Triton X-100 solution (10 µL) was added to the corresponding wells as a non-specific positive control. After adding the test compounds, the cells were incubated for 72 h in an atmosphere containing 5% CO2. After that, the nutrient medium was removed from each well (in the case of SK-BR-3, Jurkat, and COLO201, plates were pre-centrifuged at 1500 rpm for 6 min). A solution of the commercial anticancer agent Doxorubicin (Dox, Sigma-Aldrich, St. Louis, MO, USA) in DMSO was used as a reference drug. Then, 150 µL of a complete medium with the MTT reagent (PanEco, Moscow, Russia) at a concentration of 0.5 mg/mL was added and incubated for 2 h. Formazan crystals were dissolved in DMSO (200 µL) and the absorbance in the wells was measured at 540 nm and a reference wavelength of 650 nm (Sunrise, Tecan, Groding, Austria). Experiments were performed in three parallel runs. Cell viability after incubation in the presence of test compounds was calculated in relation to cell viability in the control wells according to the Formula (1):Cell viability (%) = (Aexp/Ac) × 100,(1) where Aexp is the optical density of solutions in the wells containing test compounds; Ac is the optical density of solutions in control wells without test compounds. For detailed information on cell viability of various cell lines, see the Supplementary Materials, Figures S21–S26.
(§3) At the second stage of this study, in order to more accurately calculate the CC50 (the half maximal inhibitory concentration), the cytotoxic effect of test compounds was evaluated at concentrations close to CC50 found at the first stage. The study of the cytotoxic activity of each substance towards the cells of each line was carried out in triplicate; the mean value was used to calculate CC50. The CC50 values were determined by non-linear regression analysis using Graph-Pad Prism7.
A general note: Tetrazolium assays rely on reduction of a dye to a coloured formazan, in cell work by metabolically active cells.

Series [2] deals with CT-26 murine colon carcinoma. Put plainly: MTT cytotoxicity assay, CT-26. The following applies: Mus musculus, CT26; for CC50: CT-26, 72 h incubation, MTT, n = 3. It is filed as cell-based.
Excerpt: as §1, §2, §3

Series [3] in a line: MTT cytotoxicity assay, CT-26. The format is cell-based, murine. The following applies: mouse (CT-26) and human (WI-38); CC50 of WI-38 divided by CC50 of CT-26; read-out: SCI (selective cytotoxicity index).
Excerpt: as §1, §2, §3

Series [4] is described as follows: MTT cytotoxicity assay, COLO201. It is filed as cell-based, human. The following applies: human; CC50 of WI-38 divided by CC50 of COLO201; read-out: SCI (selective cytotoxicity index).
Excerpt: as §1, §2, §3

Series [5] deals with COLO201 human colorectal adenocarcinoma. Description: MTT cytotoxicity assay, COLO201. The format is cell-based. The conditions noted are these: Homo sapiens, COLO 201; for CC50: COLO201, 72 h incubation, MTT, n = 3.
Excerpt: as §1, §2, §3

A short description of series [6]: MTT cytotoxicity assay, Jurkat. The format is cell-based, human. The conditions noted are these: human, read-out: SCI (selective cytotoxicity index).
Excerpt: as §1, §2, §3

The test system of series [7] is Jurkat human acute T-lymphoblastic leukemia. Description: MTT cytotoxicity assay, Jurkat. The format is cell-based. The conditions noted are these: Homo sapiens, Jurkat; for CC50: 72 h, 72 h incubation, MTT.
Excerpt: as §1, §2, §3

Series [8] in a line: MTT cytotoxicity assay, HepG2. The format is cell-based, human. The following applies: human; CC50 of WI-38 divided by CC50 of HepG2; read-out: SCI (selective cytotoxicity index).
Excerpt: as §1, §2, §3

Series [9] concerns HepG2 human hepatocellular carcinoma. Put plainly: MTT cytotoxicity assay, HepG2. The format is cell-based. The following applies: Homo sapiens; for CC50: HepG2, 72 h incubation, MTT, n = 3.
Excerpt: as §1, §2, §3

The nature of series [10]: MTT cytotoxicity assay, SK-BR-3. The following applies: human, read-out: SCI (selective cytotoxicity index). It is filed as cell-based, human.
Excerpt: as §1, §2, §3

The subject of series [11] is SK-BR-3 human breast adenocarcinoma. Description: MTT cytotoxicity assay, SK-BR-3. It is filed as cell-based. The following applies: Homo sapiens; for CC50: SK-BR-3, 72 h, SK-BR-3, 72 h incubation, MTT.
Excerpt: as §1, §2, §3

Series [12] deals with MDA-MB-231 human breast adenocarcinoma. Description: MTT cytotoxicity assay, MDA-MB-231. It is filed as cell-based. The conditions noted are these: Homo sapiens; for CC50: MDA-MB-231, 72 h incubation, MTT, n = 3.
Excerpt: as §1, §2, §3

The nature of series [13]: MTT cytotoxicity assay, MDA-MB-231. The format is cell-based, human. The conditions noted are these: human; CC50 of WI-38 divided by CC50 of MDA-MB-231; read-out: SCI (selective cytotoxicity index).
Excerpt: as §1, §2, §3

Series [14] has as its system A549 human non-small-cell lung carcinoma. Description: MTT cytotoxicity assay, A549. It is filed as cell-based. The conditions noted are these: Homo sapiens; for CC50: A549, 72 h, A549, 72 h incubation, MTT.
Excerpt: as §1, §2, §3

The nature of series [15]: MTT cytotoxicity assay, A549. The format is cell-based, human. The conditions noted are these: human, read-out: SCI (selective cytotoxicity index).
Excerpt: as §1, §2, §3

The subject of series [16] is SNU-1 human gastric carcinoma. Description: MTT cytotoxicity assay, SNU-1. It is filed as cell-based. The following applies: Homo sapiens; for CC50: SNU1, 72 h, SNU-1, 72 h incubation, MTT.
Excerpt: as §1, §2, §3

Series [17] is described as follows: MTT cytotoxicity assay, SNU-1. The format is cell-based, human. The following applies: human, read-out: SCI (selective cytotoxicity index).
Excerpt: as §1, §2, §3

Series [18] relates to 4T1 murine mammary carcinoma. Put plainly: MTT cytotoxicity assay, 4T1. The format is cell-based. The conditions noted are these: Mus musculus; for CC50: 4T1, 72 h incubation, MTT, n = 3.
Excerpt: as §1, §2, §3

Series [19] can be described thus: MTT cytotoxicity assay, 4T1. The conditions noted are these: mouse (4T1) and human (WI-38); CC50 of WI-38 divided by CC50 of 4T1; read-out: SCI (selective cytotoxicity index). The format is cell-based, murine.
Excerpt: as §1, §2, §3

Series [20] is described as follows: Solubility in aqueous media. The conditions noted are these: result in words. The format is physicochemical.
The test system of series [21] is A549, SK-BR-3, SNU-1, Jurkat, WI-38 cell lines. Description: MTT cytotoxicity assay, cell line panel (result in words). It is filed as cell-based, human. The conditions noted are these: 72 h.
Excerpt: as §1
The cytotoxicity of compounds 2a–c, 6, 7, and 9 was also studied using the MTT assay against a number of tumor cell lines: A549, SK-BR-3, SNU-1, Jurkat, as well as normal fibroblasts WI-38 (Table 3).
as §2, §3

[22] abbreviates: CC50 of WI-38 divided by CC50 of Jurkat (Table 1).
Where [23] appears, read: CC50 of WI-38 divided by CC50 of SK-BR-3 (Table 1).
The mark [24] stands for this setting: CC50 of WI-38 divided by CC50 of A549 (Table 1).
[25] abbreviates: CC50 of WI-38 divided by CC50 of SNU-1 (Table 1).

What is called CC50 is the concentration giving 50% cytotoxicity. Low values mean greater toxicity to the cells, high ones lower toxicity to the cells. For orientation: viability means a per cent measure of how many cells are alive, often set against a control.

Compound `CC1COc2c(ccc(F)c2F)N1C(=O)CCCCCCCCCCCNc1ncnc2[nH]cnc12` (centres unmarked) [Compound 1e] returned a cytotoxic concentration (CC50) at 72 h in [1] (n = 3) of 71 µM. Also, the viability at 72 h in series [1] (WI-38, 1 × 10^–4 M, mean ± SD (n = 3), read-out: Cell viability) was determined as 22 ± 7%. Moreover, the viability at 100 µM in series [2] (CT-26, 1 × 10^–4 M, mean ± SD (n = 3), read-out: Cell viability) was 3 ± 2%; in series [5] (COLO201, 1 × 10^–4 M, mean ± SD (n = 3), read-out: Cell viability) it was 2 ± 1%; in series [7] (1 × 10^–4 M, mean ± SD (n = 3), read-out: Cell viability), 10 ± 4%; in series [9] (HepG2, 1 × 10^–4 M, mean ± SD (n = 3), read-out: Cell viability) it was 2 ± 1%; in series [11] (SK-BR-3, 1 × 10^–4 M, mean ± SD (n = 3), read-out: Cell viability) it was 9 ± 2%; in [12] (MDA-MB-231, 1 × 10^–4 M, mean ± SD (n = 3), read-out: Cell viability), 7 ± 5%. For the same compound, the viability at 100 µM was determined as 6% in [14] (A549, 1 × 10^–4 M, mean ± SD (n = 3)); 5 ± 1% in [16] (SNU1, SNU-1, 1 × 10^–4 M, mean ± SD (n = 3), read-out: Cell viability); 2 ± 2% in [18] (4T1, 1 × 10^–4 M, mean ± SD (n = 3), read-out: Cell viability). Moreover, the CC50 in [2] was 3.4 µM; in series [5], 3500 nM; in series [7] (n = 3 (Table 1)), 4 µM; in [9], 5.2 µM; in series [11] (n = 3 (Table 1)), 85 µM; in series [12], 12 µM. Moreover, the CC50 was found to be 75 µM in series [14] (n = 3 (Table 1)), 6 µM in series [16] (n = 3 (Table 1)) and 490 nM in series [18]. In addition, the selectivity ratio at 72 h in series [3] is 21; in [4], 20; in [6] (setting [22]) it was 18; in [8] it was 14; in series [10] (setting [23]) it was 0.83; in [13], 5.9. For the same compound, the figures for the selectivity ratio at 72 h in [15] (setting [24]), in series [17] (setting [25]) and in series [19] were 0.95, 12 and 145, respectively.

With `CC1COc2c(ccc(F)c2F)N1C(=O)CCCCCCCCCCCCCCNc1ncnc2[nH]cnc12` (centres unmarked) [Compound 1f], the midpoint of cytotoxicity in [1] (n = 3), the CC50 at 72 h, lay at 35 µM. Further, the CC50 amounted to 3 µM in series [2]; 1300 nM in series [5]; 32 µM in series [7] (n = 3 (Table 1)); 9.7 µM in series [9]; 99 µM in series [11] (n = 3 (Table 1)); 28 µM in series [12]. Moreover, the values for the CC50 in [14] (n = 3 (Table 1)), in series [16] (n = 3 (Table 1)) and in series [18] were 60 µM, 6 µM and 2300 nM, respectively. Also, the selectivity ratio at 72 h stood at 12 in series [3]; 27 in [4]; 1.1 in [6] (setting [22]); 3.6 in [8]; 0.35 in [10] (setting [23]); 1.4 in series [13]. Further, the selectivity ratio at 72 h in [15] (setting [24]) amounted to 0.58; in series [17] (setting [25]), 5.8; in series [19], 15.

For `CC1COc2c(ccc(F)c2F)N1C(=O)CCCCCCCCCCNc1ncnc2c1ncn2COCCO` (centres unmarked) [Compound 7, 4-{11-[9-(2-Hydroxyethoxy)methylpurin-6-yl]aminoundecanoyl}-7,8-difluoro-3,4-dihydro-3-methyl-2H-[1,4]benzoxazine], the CC50 at 72 h in [1] (n = 3 (Table 3)) was found to be 14 µM. Moreover, the selectivity ratio at 72 h is 1.9 in [6] (CC50 of WI-38 divided by CC50 of Jurkat (Table 3)), 0.33 in series [10] (CC50 of WI-38 divided by CC50 of SK-BR-3 (Table 3)), 1.5 in series [15] (CC50 of WI-38 divided by CC50 of A549 (Table 3)) and 3.8 in series [17] (CC50 of WI-38 divided by CC50 of SNU-1 (Table 3)). In addition, the CC50 is 7.3 µM in series [7] (n = 3 (Table 3)), 42 µM in series [11] (n = 3 (Table 3)), 9.4 µM in [14] (n = 3 (Table 3)) and 3.7 µM in series [16] (n = 3 (Table 3)). In addition, the “solubility in aqueous media” value in series [20] is “not possible to achieve a significant increase in the solubility”. Also, the “cytotoxic activity (in words)” value in series [21] was “approximately the same cytotoxicity as the most active compound 1d”.
